Laboratory results taken from ChEMBL document CHEMBL1157662, “Antimalarial and antileishmanial activities of histone deacetylase inhibitors with triazole-linked cap group” (Bioorg Med Chem, 2010).
Values after ≈ are worked out from the molar mass of the structure shown.

Experiments:
Leishmania donovani [1] = assay: Antileishmanial activity against Leishmania donovani promastigotes after 72 hrs by alamar blue assay; assay type: functional, organism-based; conditions: Leishmania donovani, 72 h; for IC50: read-out: IC50
Plasmodium falciparum [2] = assay: microbe, parasite or virus in culture; assay type: functional, organism-based, W2, Vero; conditions: Plasmodium falciparum, W2, Vero, 72 h; read-out: IC50
Description: Antimalarial activity against chloroquine-resistant Plasmodium falciparum W2 infected in African green monkey (Cercopithecus aethiops) Vero cells assessed as parasite LDH activity after 72 hrs by Malstat reagent method

Vero = assay: Cytotoxicity against african green monkey Vero cells after 1 to 2 days by neutral red assay; assay type: ADME, cell-based, Chlorocebus sabaeus
[3] = Selectivity index, ratio of IC50 for african green monkey (Cercopithecus aethiops) Vero cells to IC50 for chloroquine-sensitive Plasmodium falciparum D6
[4] = Selectivity index, ratio of IC50 for african green monkey (Cercopithecus aethiops) Vero cells to IC50 for chloroquine-resistant Plasmodium falciparum W2
Plasmodium falciparum [5] = assay: microbe, parasite or virus in culture; conditions: D6, Vero, 72 h
Description: Antimalarial activity against chloroquine-sensitive Plasmodium falciparum D6 infected in African green monkey (Cercopithecus aethiops) Vero cells assessed as parasite LDH activity after 72 hrs by Malstat reagent method

Leishmania donovani [6] = assay: Ratio of suberoylanilide hydroxamic acid IC50 to compound IC50 for Leishmania donovani promastigotes; assay type: functional
Leishmania donovani [7] = assay: Ratio of suberoylanilide hydroxamic acid IC50 to compound IC50 for Leishmania donovani promastigotes
Histone deacetylase = assay: Inhibition of HDAC in human HeLa cell nuclear extracts after 15 mins by fluorescence assay; assay type: cell-based
[8] = Chlorocebus sabaeus, Vero, read-out: IC50

| SMILES | IC90 (Leishmania donovani [1]) | IC50 (Leishmania donovani [1]) | IC50 (Plasmodium falciparum [2]) | IC50 (Vero; vero) | selectivity ratio [3] | selectivity ratio [4] | IC50 (Plasmodium falciparum [5]) | IC50 (Vero; [8]) | Ratio (Leishmania donovani [6]) | IC50 ratio (Leishmania donovani [7]) | IC50 (Histone deacetylase) |
| --- | --- | --- | --- | --- | --- | --- | --- | --- | --- | --- | --- |
| O=C(CCCCCn1cc(-c2ccc(-c3ccncc3)cc2)nn1)NO | > 40 µg/mL | 28 µg/mL (≈ 79.7 µM) | 0.0475 µg/mL (≈ 0.135 µM) | Non-toxic | > 105 | > 100 | 0.0455 µg/mL (≈ 0.129 µM) |  |  |  |  |
| O=C(CCCCCCn1cc(-c2ccccn2)nn1)NO | 40 µg/mL (≈ 138 µM) | 5.75 µg/mL (≈ 19.9 µM) | 0.04 µg/mL (≈ 0.138 µM) |  | 13.8 | 23.8 | 0.069 µg/mL (≈ 0.238 µM) | 0.95 µg/mL (≈ 3.28 µM) | 2 | 2 |  |
| CN(C)c1ccc(-c2cn(CCCCCC(=O)NO)nn2)cc1 | > 40 µg/mL | 15.5 µg/mL (≈ 48.8 µM) | 0.0385 µg/mL (≈ 0.121 µM) |  | 50 | 88.3 | 0.068 µg/mL (≈ 0.214 µM) | 3.4 µg/mL (≈ 10.7 µM) |  |  |  |
| Cc1ccccc1-c1cn(CCCCCC(=O)NO)nn1 | > 40 µg/mL | 23 µg/mL (≈ 79.8 µM) | 1.95 µg/mL (≈ 6.76 µM) |  | 2.6 | 1.7 | 1.25 µg/mL (≈ 4.33 µM) | 3.3 µg/mL (≈ 11.4 µM) |  |  |  |
| O=C(CCCCCn1cc(-c2ccccn2)nn1)NO | > 40 µg/mL | 20.5 µg/mL (≈ 74.5 µM) | 0.625 µg/mL (≈ 2.27 µM) |  | 2.9 | 4.6 | 0.985 µg/mL (≈ 3.58 µM) | 2.9 µg/mL (≈ 10.5 µM) |  |  |  |
| O=C(CCCCCCn1cc(-c2ccccc2)nn1)NO | 40 µg/mL (≈ 139 µM) | 4.55 µg/mL (≈ 15.8 µM) | 0.0245 µg/mL (≈ 0.085 µM) |  | 11.3 | 17.6 | 0.038 µg/mL (≈ 0.132 µM) | 0.43 µg/mL (≈ 1.49 µM) | 2 | 2 |  |
| O=C(CCCCCn1cc(-c2cccnc2)nn1)NO | > 40 µg/mL | 11.4 µg/mL (≈ 41.6 µM) | 0.205 µg/mL (≈ 0.745 µM) | Non-toxic | > 27.2 | > 23.2 | 0.175 µg/mL (≈ 0.636 µM) |  |  |  |  |
| O=C(CCCCCCCCn1cc(-c2ccccc2)nn1)NO | > 40 µg/mL | 18.5 µg/mL (≈ 58.5 µM) | 2.75 µg/mL (≈ 8.69 µM) |  | 1.9 | 1.2 | 2.65 µg/mL (≈ 8.38 µM) | 3.35 µg/mL (≈ 10.6 µM) |  |  | 55.4 nM |
| O=C(CCCCCn1cc(-c2cccc(-c3ccccc3)c2)nn1)NO | 32.5 µg/mL (≈ 92.7 µM) | 11.2 µg/mL (≈ 32.1 µM) | 0.026 µg/mL (≈ 0.0742 µM) | Non-toxic | > 127 | > 183 | 0.0375 µg/mL (≈ 0.107 µM) |  | 2 | 2 |  |
| CN(C)c1ccc(-c2cn(CCCCCCCCC(=O)NO)nn2)cc1 | > 40 µg/mL | 20.8 µg/mL (≈ 57.7 µM) | 1.65 µg/mL (≈ 4.59 µM) | Non-toxic | > 2.6 | > 2.9 | 1.8 µg/mL (≈ 5.01 µM) |  |  |  | 596.6 nM |
| O=C(CCCCCn1cc(-c2ccncc2)nn1)NO | > 40 µg/mL | 17.8 µg/mL (≈ 64.5 µM) | 0.133 µg/mL (≈ 0.481 µM) | Non-toxic | > 24.4 | > 35.9 | 0.195 µg/mL (≈ 0.708 µM) |  |  |  |  |
| Cc1cccc(-c2cn(CCCCCC(=O)NO)nn2)c1 | > 40 µg/mL | 17 µg/mL (≈ 59 µM) | 0.068 µg/mL (≈ 0.236 µM) |  | 34 | 39.7 | 0.0795 µg/mL (≈ 0.276 µM) | 2.7 µg/mL (≈ 9.36 µM) |  |  |  |
| O=C(CCCCCCC(=O)Nc1ccccc1)NO [VORINOSTAT] | 57.9 µg/mL (≈ 219 µM) |  |  |  |  |  |  |  |  |  |  |
| O=C(CCCCCCn1cc(-c2cccc(-c3ccccc3)c2)nn1)NO | > 40 µg/mL | 20.5 µg/mL (≈ 56.2 µM) | 0.025 µg/mL (≈ 0.0686 µM) | Non-toxic | > 190 | > 190 | 0.025 µg/mL (≈ 0.0686 µM) |  |  |  |  |
| O=C(CCCCCCn1cc(-c2cccnc2)nn1)NO | 40 µg/mL (≈ 138 µM) | 15.5 µg/mL (≈ 53.6 µM) | 0.081 µg/mL (≈ 0.28 µM) |  | 50.1 | 46.7 | 0.0755 µg/mL (≈ 0.261 µM) | 3.78 µg/mL (≈ 13.1 µM) |  |  | 365.8 nM |
| CC(/C=C/C(=O)NO)=C\[C@@H](C)C(=O)c1ccc(N(C)C)cc1 [TRICHOSTATIN] | 20.5 µg/mL (≈ 67.8 µM) | 1.37 µg/mL (≈ 4.53 µM) | 0.0495 µg/mL (≈ 0.164 µM) |  |  |  | 0.0412 µg/mL (≈ 0.136 µM) | 0.095 µg/mL (≈ 0.314 µM) |  |  |  |
| O=C(CCCCCn1cc(-c2cccs2)nn1)NO | > 40 µg/mL | 11.5 µg/mL (≈ 41 µM) | 0.0365 µg/mL (≈ 0.13 µM) | Non-toxic | > 103 | > 130 | 0.046 µg/mL (≈ 0.164 µM) |  | 2 | 2 |  |
| N=C(N)c1ccc(OCCCCCOc2ccc(C(=N)N)cc2)cc1 [PENTAMIDINE] | 1.8 µg/mL (≈ 5.29 µM) |  |  |  |  |  |  |  |  |  |  |
| O=C(CCCCCn1cc(-c2ccccc2-c2ccccc2)nn1)NO | 38 µg/mL (≈ 108 µM) | 13 µg/mL (≈ 37.1 µM) | 2.6 µg/mL (≈ 7.42 µM) |  | 1.3 | 1 | 2.1 µg/mL (≈ 5.99 µM) | 2.7 µg/mL (≈ 7.7 µM) |  |  |  |
